What all share (assay): DTP human tumour cell line panel, 48 h
Test [1] concerns A549 NSCLC.
For test [2], the system named is LOX IMVI melanoma.
In test [3] the test system is MALME-3M melanoma.
Test [4] concerns MOLT-4 leukemia.
Test [5] has as its system RXF 393 renal.
Test [6] has as its system SF-268 CNS.
Test [7] relates to SK-MEL-28 melanoma.
Test [8] has as its system SK-OV-3 ovarian.
The test system of test [9] is SW-620 colon.
Test [10] concerns TK-10 renal.

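Values below derive from 48-hour exposures of cells grown in 96-well plates, with endpoints linearly interpolated between the two concentrations bracketing the appropriate inhibition level. At the GI50, growth is halved. At the TGI there is no net growth.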 Bounds are passed on as bounds.

With `Nc1nccc(-c2c(-c3ccc(F)cc3)ncn2C2CCC(O)CC2)n1` (stereo not drawn), the GI50 in test [1] was 4.03 µM; in test [2], 9340 nM; in test [3] it was 6720 nM; in test [4], 22.5 µM; in [5], 4.77 µM; in [6] it was 10.2 µM. Also, the GI50 in test [7] was 14.8 µM; in test [8] it was 3.97 µM; in [9] it was 13.6 µM; in test [10], 3720 nM. Besides, the TGI in [1] is above 25 µM; in test [2], above 25 µM; in [3] it was above 25 µM; in test [4], above 25 µM; in test [5] it was above 23.8 µM; in test [6], above 25 µM. In addition, the TGI in test [7] is above 25 µM; in test [8] it was 12.2 µM; in test [9], above 25 µM; in test [10], 24.4 µM.

Take `Cc1cc(Cl)cc2c1NC(=O)C2(O)CC(=O)c1ccco1` (stereo not drawn): the TGI is above 100 µM in test [1]; above 69.8 µM in test [2]; above 76.1 µM in test [3]; 81.2 µM in test [4]; above 100 µM in test [5]; above 100 µM in [6]. The TGI in test [7], in [8], in test [9] and in test [10] was above 100 µM throughout.

On to `CCCCCCCC[C@@H](O)CC(=O)N[C@@H](CC(N)=O)C(=O)N[C@@H](CCC(N)=O)C(=O)N[C@@H](CC(=O)c1cc(C)cc(O)c1C(=O)c1c(O)cccc1O)CC(C)C`, for which the GI50 in test [1] was 5.31 µM; in [2], 1320 nM; in test [3], 667 nM; in test [4], 0.308 µM; in test [5], 0.214 µM; in test [6] it was 0.374 µM. For the same molecule, the GI50 in test [7] was 1.59 µM; in test [8] it was 12.6 µM; in test [9], 0.426 µM; in test [10], 179 nM. Further, the TGI in test [1] is above 100 µM; in test [2], 3.9 µM; in [3], above 100 µM; in test [4], above 100 µM; in test [5], 0.713 µM; in test [6], 2.55 µM. Besides, the TGI was 25.5 µM in [7], above 100 µM in test [8], 23.6 µM in test [9] and 1.26 µM in [10].

With `CCCn1c(=S)sc2c1nc(C)n1c(Nc3ccccc3)nnc21`, the GI50 in test [1] is 6.18 µM; in test [2], 3670 nM; in test [3], 2940 nM; in [4], 3.02 µM; in test [5], 15.1 µM; in test [7] it was 5.71 µM. Besides, the values for the GI50 in [8], in test [9] and in test [10] were 16.8 µM, 8.41 µM and 3200 nM, respectively. Moreover, the TGI in [1] was above 100 µM; in test [2] it was above 100 µM; in test [3] it was above 100 µM; in test [4], 48.3 µM; in [5], above 100 µM; in test [7] it was 38.6 µM. The TGI in test [8] is 89.1 µM; in test [9] it was 22.3 µM; in [10], 84 µM.

As to `Cc1ccc(C(=O)N(CCCN)C(c2oc3cc(Cl)ccc3c(=O)c2Cc2ccccc2)C(C)C)cc1` (stereo not drawn), the GI50 is below 0.01 µM in test [1]; below 40.2 nM in [2]; 1300 nM in [3]; below 0.01 µM in test [4]; below 0.01 µM in [5]; below 0.01 µM in test [6]. Further, the GI50 in test [7] was 1.07 µM; in [8], below 0.01 µM; in [9] it was below 0.01 µM; in [10], 1110 nM. In addition, the TGI in test [1] is 1.54 µM; in [2], 1.98 µM; in [3] it was 3.09 µM; in test [4], 2.94 µM; in [5], 1.48 µM; in [6], 1.69 µM. The TGI in test [7] was 2.5 µM; in test [8], 1.57 µM; in test [9], 1.45 µM; in [10] it was 2.37 µM.

With `CCOC(=S)SSSC(=S)OCC`, the TGI in test [1] is above 100 µM; in test [2] it was above 100 µM; in [3], above 100 µM; in test [4] it was 94.7 µM; in [5] it was above 100 µM; in test [6], above 100 µM. Further, the TGI in test [7], in test [8], in test [9] and in test [10] was above 100 µM each time.

For `CCOCC(=O)N[C@H]1CCc2cc(OC)c(OC)c(OC)c2-c2ccc(OC)c(=O)cc21`, the TGI is above 100 µM in test [1]; above 100 µM in test [2]; above 100 µM in test [3]; above 52.7 µM in [4]; above 100 µM in test [5]; above 100 µM in test [6]. The total growth inhibition concentration (TGI) in test [7] was above 100 µM; in [8], 15 µM; in [9], above 100 µM; in test [10] it was above 100 µM.

Regarding `CCCC(=O)OCC1OC(n2cnc3c(=S)nc[nH]c32)C(OC(=O)CCC)C1OC(=O)CCC` (stereo not drawn), the GI50 in test [1] was 38.1 µM; in [2] it was 2340 nM; in test [3], 38500 nM; in test [4], 3.06 µM; in [5], 26 µM; in test [6] it was 5.95 µM. Further, the GI50 in test [7] was 77.5 µM; in test [8], 0.804 µM; in test [9], 4.59 µM; in [10] it was 2780 nM. Further, the TGI in test [1] was above 100 µM; in [2] it was above 100 µM; in test [3], above 100 µM; in test [4], 39.1 µM; in test [5] it was above 100 µM; in test [6] it was above 100 µM. The TGI is above 100 µM in [7], 69.8 µM in test [8], above 100 µM in test [9] and above 100 µM in test [10].

Values taken from PubChem BioAssay (NCI).
